Paper PMC9919513, “A Practical Approach to Bicyclic Carbamoyl Pyridones with Application to the Synthesis of HIV-1 Integrase Strand Transfer Inhibitors” (Molecules, 2023)
Like-named read-outs stand apart in the source and are kept apart here.

Experiments:
[1] = system: HIV-1 vectors bearing the S230N IN mutant; experiment: Single-round HIV-1 replication antiviral assay, S230N IN mutant; format: cell-based
Description: To further evaluate the antiviral activities of select compounds, we determined their EC50 values against the IN mutant S230N, which has been selected in vitro against an early Merck INSTI L810,830, a prototype for naphthyridine analogs.
(§1) Human embryonic kidney cell culture cell line 293 was acquired from the American Type Culture Collection (ATCC). The human osteosarcoma cell line, HOS, was obtained from Dr. Richard Schwartz (Michigan State University, East Lansing, MI, USA) and grown in Dulbecco’s modified Eagle’s medium (Invitrogen, Carlsbad, CA, USA) supplemented with 5% (v/v) fetal bovine serum, 5% newborn calf serum, and penicillin (50 units/mL) plus streptomycin (50 µg/mL; Quality Biological, Gaithersburg, MD, USA). The transfection vector, pNLNgoMIVR-ΔLUC was made from pNLNgoMIVR-ΔEnv.HSA by removing the HSA reporter gene and replacing it with a luciferase reporter gene between the NotI and XhoI restriction sites. To produce the new IN mutant S230N used in this study, the IN open reading frame was removed from pNLNgoMIVR-ΔENV.LUC by digestion with KpnI and SalI, and the resulting fragment was inserted between the KpnI and SalI sites of pBluescript KS+. Using that construct as the wild-type template, we prepared the following HIV-1 IN mutant S230N using the QuikChange II XL site-directed mutagenesis kit (Agilent Technologies, Santa Clara, CA, USA) protocol. The following sense oligonucleotides were used with matching cognate antisense oligonucleotides (not shown) (Integrated DNA Technologies, Coralville, IA, USA) in the mutagenesis: S230N 5′-[…]-3′. The DNA sequence of the IN mutant S230N construct was verified independently by DNA sequence determination. The mutated IN coding sequences from pBluescript KS+ were then subcloned into pNLNgoMIVR-ΔEnv.LUC (between the KpnI and SalI sites) to produce mutant HIV-1 constructs, which were also checked by DNA sequencing. […]. On the day prior to transfection, 293 cells were plated on 100 mm diameter dishes at a density of 1.5 × 10^6 cells per plate. Next, 293 cells were transfected with 16 µg of pNLNgoMIVR^-ΔLUC and 4 µg of pHCMV-g (obtained from Dr. Jane Burns, University of California, San Diego) using the calcium phosphate method. At approximately 6 h after the calcium phosphate precipitate was added, 293 cells were washed twice with phosphate-buffered saline (PBS) and incubated with fresh media for 48 h. The virus-containing supernatants were then harvested, clarified by low-speed centrifugation, filtrated, and diluted for preparation in antiviral infection assays. On the day prior to the screen, HOS cells were seeded in a 96-well luminescence cell culture plate at a density of 4000 cells in 100 µL per well. On the day of the screen for cellular cytotoxicity determination, cells were treated with compounds from a concentration range of 250 µM to 0.05 µM and then incubated at 37 °C for 48 h. On the day of the screen for antiviral activity infection assays, cells were treated with compounds from a concentration range of 5 µM to 0.0001 µM using 11 serial dilutions and then incubated at 37 °C for 3 h. After compound incorporation and activation in the cell, 100 µL of virus-stock (WT or mutant) diluted to achieve a luciferase signal between 0.2 and 1.5 Relative Luciferase Units (RLUs) was added to each well and further incubated at 37 °C for 48 h. Cellular cytotoxicity was measured by using the ATP Lite Luminescence detection system and monitored by adding 50 µL of cell lysis buffer from the Luminescence ATP detection assay to each well followed by mixing at 700 rpm at room temperature for 5 min using a compact thermomixer. […]

[2] = system: HIV-1 vectors that carry WT IN; experiment: Single-round HIV-1 replication antiviral assay, wild-type IN; format: cell-based; conditions: for Ratio of the antiviral potencies after and before hydrogenation (WT): EC50 of saturated 7 over EC50 of unsaturated 6, WT IN; for EC50: Human immunodeficiency virus 1, HOS, 48 h, read-out: EC50, antiviral potency, WT IN, VSV-g-pseudotyped HIV-1 luciferase vector with WT IN, HOS cells, 48 h
Procedure: The bicyclic metal chelating carbamoyl pyridone moiety is common to second-generation tricyclic INSTIs (3, 4, and 5, Figure 1). Analogs of the current study are simplified analogs that lack a third ring. […] The halogen substitution pattern of the benzylamide moiety can affect inhibitory potencies of INSTIs. We determined the antiviral potencies of our compounds in single round HIV-1 replication assays using viral constructs with wild-type IN [31]. Cytotoxicities were determined as previously described. […] In general, the potencies of bicyclic analogs 6 having an unsaturated bond at the C4 position were insensitive to differences in N-methyl substituents. […] Analogs 6g and 6h represent simplified analogs of DTG (3) and CAB (5), respectively, in which the third ring (C-ring) is opened and having doble bond in B-ring, but lacking α-methyl stereochemistry.
as §1, with “h.” for “h. Cellular cytotoxicity was measured by using the ATP Lite Luminescence detection system and monitored by adding 50 µL of cell lysis buffer from the Luminescence ATP detection assay to each well followed by mixing at 700 rpm at room temperature for 5 min using a compact thermomixer.”

[3] = in vitro; format: cell-based; conditions: human, HOS cells, 48 h; read-out: CC50, cytotoxic concentration resulting in 50% reduction in the level of ATP
Procedure: as §1, with “thermomixer. After addition of 50 µL of reconstituted Luminescence ATP detection assay reagent to all wells except for the negative control/background wells, the plates were mixed at 700 rpm at room temperature for 5 min using a compact thermomixer, incubated at room temperature for 20 min to allow time for signal development, and finally, cytotoxicity was determined using the microplate reader. Infectivity was measured by using the Steady-lite plus luminescence reporter gene assay system (PerkinElmer, Waltham, MA, USA).” for “thermomixer.”

[4] = system: HIV-1 vectors bearing the S230N IN mutant; conditions: single round infection assays, read-out: EC50 against the S230N IN mutant; cited from earlier work

Compound | Ratio of the antiviral potencies after and before hydrogenation (S230N) ([1]; EC50 of saturated 7 over EC50 of unsaturated 6, S230N IN) | EC50 ([1]; Human immunodeficiency virus 1, HOS, 48 h, read-out: EC50, antiviral potency, S230N IN mutant) [nM] | melting point [°C] | Ratio of the antiviral potencies after and before hydrogenation (WT) [2] | EC50 [2] [nM] | CC50 [3] [nM] | EC50 [4] [nM]
O=C(NCc1ccc(F)cc1F)c1cn2c(c(O)c1=O)C(=O)N(CCCCCO)CC2 [Compound 7d, N-(2,4-Difluorobenzyl)-9-hydroxy-2-(5-hydroxypentyl)-1,8-dioxo-1,3,4,8-tetrahydro-2H-pyrido [1,2-a]pyrazine-7-carboxamide] | 6.29 | 97 | 201 to 207 | 5.0 | 54.5 ± 3 | – | –
CN1CCn2cc(C(=O)NCc3ccc(F)cc3F)c(=O)c(O)c2C1=O [Compound 7a, N-(2,4-Difluorobenzyl)-9-hydroxy-2-methyl-1,8-dioxo-1,3,4,8-tetrahydro-2H-pyrido [1,2-a]pyrazine-7-carboxamide] | – | – | 247 to 252 | 1.7 | 4.6 ± 0.7 | > 250000 | –
C[C@@H]1CCO[C@H]2Cn3cc(C(=O)NCc4ccc(F)cc4F)c(=O)c(O)c3C(=O)N12 [DTG, Dolutegravir, reference compound] | – | – | – | – | ~2 | – | 7.9 ± 1.3
COCCCN1CCn2cc(C(=O)NCc3ccc(F)cc3F)c(=O)c(O)c2C1=O [Compound 7g, N-(2,4-Difluorobenzyl)-9-hydroxy-2-(3-methoxypropyl)-1,8-dioxo-1,3,4,8-tetrahydro-2H-pyrido [1,2-a]pyrazine-7-carboxamide] | – | – | 250 to 252 | 2.0 | 4 ± 0.7 | > 250000 | –
